tested on: SK-OV-3; test: In vitro cell experiment (MTT), SK-OV-3; format: cell-based; settings: 72 h, human ovarian carcinoma cells (EGFR2 overexpressing)
In short: (§1)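 Inhibition rates came from OD at 550 nm after 4 h MTT labeling (0.5 mg/mL final) and DMSO solubilization, following 72 h drug exposure at 37° C of cells pre-grown 24 h. Triplicates per concentration, experiments run twice; IC50 by LOGIT method, reported as mean±SD.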

| SMILES | IC50 [nM] |
| --- | --- |
| COc1cc2c(Nc3ccc(Br)cc3F)ncnc2cc1OCCCCN(C)C [Compound 28, 4-(4-bromo-2-fluoroanilino)-6-methoxy-7-(4-(dimethylamino)-butoxy)quinazoline] | 1830 |

tested on: TT; test: In vitro cell experiment (MTT), TT; format: cell-based; settings: 72 h, human thyroid carcinoma cells (RET C634W mutation)
Method: (§2) Cells in logarithmic growth phase were seeded at a certain density in a 96-well plate (200 μL/well). The cells were allowed to grow for 24 h and subsequently treated with different concentrations of drugs (including a blank group and a control group) and incubated for 72 h at 37° C. Each concentration in a given experiment was tested in triplicate. After 72 h of exposure, 20 μL of the MTT labeling reagent was added to the medium (the final concentration of MTT was 0.5 mg/mL), and the cells were incubated for additional 4 h at 37° C. Following this process, 180 μL of the medium was removed and 130 μL of DMSO was added to each well, or the medium was completely removed and 150 μL of DMSO was added to each well. Then the plate was shaken and mixed in a micro-oscillator. Finally the optical density (OD) of each sample was measured in a micro-plate reader at 550 nm. Cell inhibition rate was calculated according to the following formula: […]
(§3) According to cell inhibition rates, IC50 was calculated by LOGIT method. The experiments were repeated twice and the data was expressed as means±SD.

| SMILES | IC50 [nM] |
| --- | --- |
| COc1cc2c(Nc3ccc(Br)cc3F)ncnc2cc1OCCCCN(C)C [Compound 28, 4-(4-bromo-2-fluoroanilino)-6-methoxy-7-(4-(dimethylamino)-butoxy)quinazoline] | 118 |

tested on: CFPAC-1; test: In vitro cell experiment (MTT), CFPAC-1; format: cell-based; settings: 72 h, human pancreatic carcinoma cells
Method: as §2, §3

| SMILES | IC50 [nM] |
| --- | --- |
| COc1cc2c(Nc3ccc(Br)cc3F)ncnc2cc1OCCCCN(C)C [Compound 28, 4-(4-bromo-2-fluoroanilino)-6-methoxy-7-(4-(dimethylamino)-butoxy)quinazoline] | 4470 |

tested on: HT-29; test: In vitro cell experiment (MTT), HT-29; format: cell-based; settings: 72 h, human colon carcinoma cells (expressing both c-KIT and PDGFR)
Method: as §2, §3

| SMILES | IC50 [nM] |
| --- | --- |
| COc1cc2c(Nc3ccc(Br)cc3F)ncnc2cc1OCCCCN(C)C [Compound 28, 4-(4-bromo-2-fluoroanilino)-6-methoxy-7-(4-(dimethylamino)-butoxy)quinazoline] | 1470 |

tested on: A375; test: In vitro cell experiment (MTT), A375; format: cell-based; settings: A-375, 72 h, human melanoma cells (KDR expressing)
Method: as §2, §3

| SMILES | IC50 [nM] |
| --- | --- |
| COc1cc2c(Nc3ccc(Br)cc3F)ncnc2cc1OCCCCN(C)C [Compound 28, 4-(4-bromo-2-fluoroanilino)-6-methoxy-7-(4-(dimethylamino)-butoxy)quinazoline] | 108 |

tested on: HCT116; test: In vitro cell experiment (MTT), HCT116; format: cell-based; settings: HCT-116, 72 h, human colon carcinoma cells
In short: as §1

| SMILES | IC50 [nM] |
| --- | --- |
| COc1cc2c(Nc3ccc(Br)cc3F)ncnc2cc1OCCCCN(C)C [Compound 28, 4-(4-bromo-2-fluoroanilino)-6-methoxy-7-(4-(dimethylamino)-butoxy)quinazoline] | 704 |

tested on: H292; test: In vitro cell experiment (MTT), H292; format: cell-based; settings: NCI-H292, 72 h, human lung carcinoma cells (EGFR1 overexpressing)
In short: as §1

| SMILES | IC50 [nM] |
| --- | --- |
| COc1cc2c(Nc3ccc(Br)cc3F)ncnc2cc1OCCCCN(C)C [Compound 28, 4-(4-bromo-2-fluoroanilino)-6-methoxy-7-(4-(dimethylamino)-butoxy)quinazoline] | 66.6 |

tested on: Bel-7402; test: In vitro cell experiment (MTT), Bel-7402; format: cell-based; settings: 72 h, human hepatoma carcinoma cells
Method: as §2, §3

| SMILES | IC50 [nM] |
| --- | --- |
| COc1cc2c(Nc3ccc(Br)cc3F)ncnc2cc1OCCCCN(C)C [Compound 28, 4-(4-bromo-2-fluoroanilino)-6-methoxy-7-(4-(dimethylamino)-butoxy)quinazoline] | 4900 |

target: EGFR (Homo sapiens, UniProt P00533); test: In vitro enzyme experiment (ELISA), EGFR; format: biochemical; settings: Poly (Glu, Tyr)4:1 substrate, 5 μM ATP
Sequence (P00533 25-1210): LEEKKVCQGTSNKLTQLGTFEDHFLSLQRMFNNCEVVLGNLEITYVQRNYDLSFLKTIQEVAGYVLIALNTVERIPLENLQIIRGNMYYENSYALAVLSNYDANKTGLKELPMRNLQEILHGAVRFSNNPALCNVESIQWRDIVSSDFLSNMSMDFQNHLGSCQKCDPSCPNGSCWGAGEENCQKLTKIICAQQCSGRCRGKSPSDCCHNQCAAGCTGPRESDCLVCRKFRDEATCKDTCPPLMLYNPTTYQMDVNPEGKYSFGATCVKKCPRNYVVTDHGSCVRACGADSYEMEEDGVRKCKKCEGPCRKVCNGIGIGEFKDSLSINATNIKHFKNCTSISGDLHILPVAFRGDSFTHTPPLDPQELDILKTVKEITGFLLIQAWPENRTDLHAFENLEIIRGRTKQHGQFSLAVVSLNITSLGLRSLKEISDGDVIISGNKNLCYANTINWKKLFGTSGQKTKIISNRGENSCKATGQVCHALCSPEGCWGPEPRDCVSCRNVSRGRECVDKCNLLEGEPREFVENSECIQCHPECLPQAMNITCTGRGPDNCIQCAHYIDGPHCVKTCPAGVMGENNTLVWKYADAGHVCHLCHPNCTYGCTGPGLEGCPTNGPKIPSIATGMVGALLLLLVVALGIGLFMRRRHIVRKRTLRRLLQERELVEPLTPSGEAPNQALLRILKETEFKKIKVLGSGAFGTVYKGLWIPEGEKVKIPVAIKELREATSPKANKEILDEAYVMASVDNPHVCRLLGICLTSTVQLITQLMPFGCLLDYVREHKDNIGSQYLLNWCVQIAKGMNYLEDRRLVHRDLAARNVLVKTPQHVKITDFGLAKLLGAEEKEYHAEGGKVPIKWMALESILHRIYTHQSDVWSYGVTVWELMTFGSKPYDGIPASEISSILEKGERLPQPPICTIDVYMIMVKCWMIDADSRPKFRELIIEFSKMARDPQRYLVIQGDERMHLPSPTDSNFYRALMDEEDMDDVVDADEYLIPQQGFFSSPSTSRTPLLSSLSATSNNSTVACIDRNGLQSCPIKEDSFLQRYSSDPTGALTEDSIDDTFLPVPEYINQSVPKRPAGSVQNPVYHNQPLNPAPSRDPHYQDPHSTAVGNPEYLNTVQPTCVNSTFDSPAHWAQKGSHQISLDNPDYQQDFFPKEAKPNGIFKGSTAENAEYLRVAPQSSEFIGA
Method: EGFR: Human epidermal growth factor receptor 1
(§4) ELISA: The enzyme plate was coated by enzyme reaction substrate (Poly (Glu, Tyr)4:1) at a density of 20 μg/ml. Then the enzyme, the sample and 5 μM ATP were mixed in the well to react. After the reaction, the substrate phosphorylation was detected by anti-phosphotyrosine monoclonal antibody (4G10). In the next step, the goat-anti-mouse IgG linking with horse radish peroxidase (HRP) and tetramethylbenzidine (TMB) were added sequentially in the well to evaluate the level of substrate phosphorylation by the degree of color depth. In the experiment, a blank group without tyrosine kinase and a control group with the corresponding concentration of DMSO were established. Finally, 50 μL/well of H2SO4 at a concentration of 0.18M was added in each well to stop the reaction. The optical density (OD) of each sample was measured in a micro-plate reader at 450 nm.
(§5) The relative inhibition rate of the compound against tyrosine kinase protein was determined.
(§6) According to the inhibition rates at different concentrations, IC50 was calculated by LOGIT method. The experiments were repeated three times, and the average of three IC50 values was the final index to evaluate the ability of inhibition.

| SMILES | IC50 [nM] |
| --- | --- |
| COc1cc2c(Nc3ccc(Br)cc3F)ncnc2cc1OCCCCN(C)C [Compound 28, 4-(4-bromo-2-fluoroanilino)-6-methoxy-7-(4-(dimethylamino)-butoxy)quinazoline] | 90.4 |

tested on: not listed separately; test: Mouse maximum tolerated dose (MTD) experiment; settings: in vivo, mice, oral, administered 7 days then observed 7 days
In short: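 Oral dosing for 7 days at twofold-spaced levels from 31.25 up to 1000 mg/kg, three randomized, weight-matched healthy mice per level. Animals were then watched for a further 7 drug-free days.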

| SMILES | MTD [mg/kg] |
| --- | --- |
| COc1cc2c(Nc3ccc(Br)cc3F)ncnc2cc1OCCCCN(C)C [Compound 28, 4-(4-bromo-2-fluoroanilino)-6-methoxy-7-(4-(dimethylamino)-butoxy)quinazoline] | 250 to 500 |

tested on: SGC7901; test: In vitro cell experiment (MTT), SGC7901; format: cell-based; settings: SGC-7901, 72 h, human gastric carcinoma cells
Method: as §2, §3

| SMILES | IC50 [nM] |
| --- | --- |
| COc1cc2c(Nc3ccc(Br)cc3F)ncnc2cc1OCCCCN(C)C [Compound 28, 4-(4-bromo-2-fluoroanilino)-6-methoxy-7-(4-(dimethylamino)-butoxy)quinazoline] | 3960 |

tested on: HCC827; test: In vitro cell experiment (MTT), HCC827; format: cell-based; settings: 72 h, human non-small cell lung carcinoma (EGFR1 19 exon mutation)
In short: as §1

| SMILES | IC50 [nM] |
| --- | --- |
| COc1cc2c(Nc3ccc(Br)cc3F)ncnc2cc1OCCCCN(C)C [Compound 28, 4-(4-bromo-2-fluoroanilino)-6-methoxy-7-(4-(dimethylamino)-butoxy)quinazoline] | 0.1 |

tested on: HUVEC; test: In vitro cell experiment (MTT), HUVEC; format: cell-based; settings: 72 h, human umbilical vein endothelial cell (KDR overexpressing)
Method: as §2, §3

| SMILES | IC50 [nM] |
| --- | --- |
| COc1cc2c(Nc3ccc(Br)cc3F)ncnc2cc1OCCCCN(C)C [Compound 28, 4-(4-bromo-2-fluoroanilino)-6-methoxy-7-(4-(dimethylamino)-butoxy)quinazoline] | 20.1 |

tested on: 3T3swiss; test: In vitro cell experiment (MTT), 3T3swiss; format: cell-based; settings: Fibroblast, 72 h, mouse fibroblasts (PDGFR overexpressing)
Method: as §2, §3

| SMILES | IC50 [nM] |
| --- | --- |
| COc1cc2c(Nc3ccc(Br)cc3F)ncnc2cc1OCCCCN(C)C [Compound 28, 4-(4-bromo-2-fluoroanilino)-6-methoxy-7-(4-(dimethylamino)-butoxy)quinazoline] | 1610 |

tested on: A498; test: In vitro cell experiment (MTT), A498; format: cell-based; settings: 72 h, human renal carcinoma cells
Method: as §2, §3

| SMILES | IC50 [nM] |
| --- | --- |
| COc1cc2c(Nc3ccc(Br)cc3F)ncnc2cc1OCCCCN(C)C [Compound 28, 4-(4-bromo-2-fluoroanilino)-6-methoxy-7-(4-(dimethylamino)-butoxy)quinazoline] | 2270 |

tested on: PC-9; test: In vitro cell experiment (MTT), PC-9; format: cell-based; settings: 72 h, human non-small-cell lung carcinoma cells (EGFR1 19 exon mutation)
Method: as §2, §3

| SMILES | IC50 [nM] |
| --- | --- |
| COc1cc2c(Nc3ccc(Br)cc3F)ncnc2cc1OCCCCN(C)C [Compound 28, 4-(4-bromo-2-fluoroanilino)-6-methoxy-7-(4-(dimethylamino)-butoxy)quinazoline] | 9.3 |

target: FLT-1 (Homo sapiens, UniProt P17948); test: In vitro enzyme experiment (ELISA), FLT-1; format: biochemical; settings: Poly (Glu, Tyr)4:1 substrate, 5 μM ATP
Method: FLT-1: Human vascular endothelial growth factor receptor 1
as §4, §5, §6

| SMILES | IC50 [nM] |
| --- | --- |
| COc1cc2c(Nc3ccc(Br)cc3F)ncnc2cc1OCCCCN(C)C [Compound 28, 4-(4-bromo-2-fluoroanilino)-6-methoxy-7-(4-(dimethylamino)-butoxy)quinazoline] | 27.4 |

target: AXL (Homo sapiens, UniProt P30530); test: In vitro enzyme experiment (ELISA), AXL; format: biochemical; settings: Poly (Glu, Tyr)4:1 substrate, 5 μM ATP
Sequence (P30530 473-894): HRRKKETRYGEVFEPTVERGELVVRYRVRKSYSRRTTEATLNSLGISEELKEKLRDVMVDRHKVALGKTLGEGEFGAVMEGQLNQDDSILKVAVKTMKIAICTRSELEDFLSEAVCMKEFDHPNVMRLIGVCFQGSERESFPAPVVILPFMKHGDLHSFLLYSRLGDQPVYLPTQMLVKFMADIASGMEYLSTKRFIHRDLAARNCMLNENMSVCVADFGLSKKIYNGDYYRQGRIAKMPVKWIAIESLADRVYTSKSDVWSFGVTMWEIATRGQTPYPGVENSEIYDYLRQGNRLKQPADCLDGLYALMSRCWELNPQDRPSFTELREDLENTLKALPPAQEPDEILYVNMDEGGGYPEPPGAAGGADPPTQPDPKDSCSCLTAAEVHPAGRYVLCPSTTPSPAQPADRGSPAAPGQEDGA
Method: as §4, with “AXL: Anaplastic lymphoma kinase Methods: ELISA:” for “ELISA:”, “nm. The relative inhibition rate of the compound against tyrosine kinase protein was determined. According to the inhibition rates at different concentrations, IC50 was calculated by LOGIT method. The experiments were repeated three times, and the average of three IC50 values was the final index to evaluate the ability of inhibition.” for “nm.”

| SMILES | IC50 [nM] |
| --- | --- |
| COc1cc2c(Nc3ccc(Br)cc3F)ncnc2cc1OCCCCN(C)C [Compound 28, 4-(4-bromo-2-fluoroanilino)-6-methoxy-7-(4-(dimethylamino)-butoxy)quinazoline] | 1470 |

tested on: Eca109; test: In vitro cell experiment (MTT), Eca109; format: cell-based; settings: ECa-109, 72 h, human esophageal carcinoma cells
Method: as §2, §3

| SMILES | IC50 [nM] |
| --- | --- |
| COc1cc2c(Nc3ccc(Br)cc3F)ncnc2cc1OCCCCN(C)C [Compound 28, 4-(4-bromo-2-fluoroanilino)-6-methoxy-7-(4-(dimethylamino)-butoxy)quinazoline] | 4880 |

target: FGFR-1 (Homo sapiens, UniProt P11362); test: In vitro enzyme experiment (ELISA), FGFR-1; format: biochemical; settings: Poly (Glu, Tyr)4:1 substrate, 5 μM ATP
Sequence (P11362 22-822, species assumed): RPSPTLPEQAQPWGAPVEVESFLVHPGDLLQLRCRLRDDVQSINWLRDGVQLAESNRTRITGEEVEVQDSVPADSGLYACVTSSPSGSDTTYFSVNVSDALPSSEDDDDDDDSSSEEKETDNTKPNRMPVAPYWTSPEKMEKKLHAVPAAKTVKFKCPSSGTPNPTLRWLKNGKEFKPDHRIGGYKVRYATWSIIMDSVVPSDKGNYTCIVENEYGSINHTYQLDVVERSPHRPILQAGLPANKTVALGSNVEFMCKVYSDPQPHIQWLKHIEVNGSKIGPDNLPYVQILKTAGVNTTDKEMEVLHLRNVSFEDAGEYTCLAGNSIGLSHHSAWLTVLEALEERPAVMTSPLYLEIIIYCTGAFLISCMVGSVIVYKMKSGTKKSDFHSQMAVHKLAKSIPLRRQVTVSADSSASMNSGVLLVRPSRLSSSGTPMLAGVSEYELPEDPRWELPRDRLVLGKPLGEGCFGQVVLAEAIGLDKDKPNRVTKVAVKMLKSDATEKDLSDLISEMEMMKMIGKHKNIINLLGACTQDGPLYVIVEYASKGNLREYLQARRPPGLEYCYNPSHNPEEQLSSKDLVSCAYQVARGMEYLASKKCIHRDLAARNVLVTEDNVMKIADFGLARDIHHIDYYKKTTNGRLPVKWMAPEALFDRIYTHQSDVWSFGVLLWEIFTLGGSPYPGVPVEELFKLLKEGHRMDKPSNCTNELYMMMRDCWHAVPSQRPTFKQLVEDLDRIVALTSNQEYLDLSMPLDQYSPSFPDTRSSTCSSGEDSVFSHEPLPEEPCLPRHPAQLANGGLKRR
Method: FGFR-1: Fibroblast growth factor receptor 1
as §4, §5, §6

| SMILES | IC50 [nM] |
| --- | --- |
| COc1cc2c(Nc3ccc(Br)cc3F)ncnc2cc1OCCCCN(C)C [Compound 28, 4-(4-bromo-2-fluoroanilino)-6-methoxy-7-(4-(dimethylamino)-butoxy)quinazoline] | 17.8 |

target: RET (Homo sapiens, UniProt P07949); test: In vitro enzyme experiment (ELISA), RET; format: biochemical; settings: Poly (Glu, Tyr)4:1 substrate, 5 μM ATP
Method: RET: A receptor involved in thyroid cancer
as §4, §5, §6

| SMILES | IC50 [nM] |
| --- | --- |
| COc1cc2c(Nc3ccc(Br)cc3F)ncnc2cc1OCCCCN(C)C [Compound 28, 4-(4-bromo-2-fluoroanilino)-6-methoxy-7-(4-(dimethylamino)-butoxy)quinazoline] | 13.5 |

tested on: A431; test: In vitro cell experiment (MTT), A431; format: cell-based; settings: A-431, 72 h, human epidermoid carcinoma (EGFR1 overexpressing)
Method: as §2, §3

| SMILES | IC50 [nM] |
| --- | --- |
| COc1cc2c(Nc3ccc(Br)cc3F)ncnc2cc1OCCCCN(C)C [Compound 28, 4-(4-bromo-2-fluoroanilino)-6-methoxy-7-(4-(dimethylamino)-butoxy)quinazoline] | 1360 |

target: PDGFRβ (Homo sapiens, UniProt P09619); test: In vitro enzyme experiment (ELISA), PDGFRβ; format: biochemical; settings: Poly (Glu, Tyr)4:1 substrate, 5 μM ATP
Sequence (P09619 33-1106, species assumed): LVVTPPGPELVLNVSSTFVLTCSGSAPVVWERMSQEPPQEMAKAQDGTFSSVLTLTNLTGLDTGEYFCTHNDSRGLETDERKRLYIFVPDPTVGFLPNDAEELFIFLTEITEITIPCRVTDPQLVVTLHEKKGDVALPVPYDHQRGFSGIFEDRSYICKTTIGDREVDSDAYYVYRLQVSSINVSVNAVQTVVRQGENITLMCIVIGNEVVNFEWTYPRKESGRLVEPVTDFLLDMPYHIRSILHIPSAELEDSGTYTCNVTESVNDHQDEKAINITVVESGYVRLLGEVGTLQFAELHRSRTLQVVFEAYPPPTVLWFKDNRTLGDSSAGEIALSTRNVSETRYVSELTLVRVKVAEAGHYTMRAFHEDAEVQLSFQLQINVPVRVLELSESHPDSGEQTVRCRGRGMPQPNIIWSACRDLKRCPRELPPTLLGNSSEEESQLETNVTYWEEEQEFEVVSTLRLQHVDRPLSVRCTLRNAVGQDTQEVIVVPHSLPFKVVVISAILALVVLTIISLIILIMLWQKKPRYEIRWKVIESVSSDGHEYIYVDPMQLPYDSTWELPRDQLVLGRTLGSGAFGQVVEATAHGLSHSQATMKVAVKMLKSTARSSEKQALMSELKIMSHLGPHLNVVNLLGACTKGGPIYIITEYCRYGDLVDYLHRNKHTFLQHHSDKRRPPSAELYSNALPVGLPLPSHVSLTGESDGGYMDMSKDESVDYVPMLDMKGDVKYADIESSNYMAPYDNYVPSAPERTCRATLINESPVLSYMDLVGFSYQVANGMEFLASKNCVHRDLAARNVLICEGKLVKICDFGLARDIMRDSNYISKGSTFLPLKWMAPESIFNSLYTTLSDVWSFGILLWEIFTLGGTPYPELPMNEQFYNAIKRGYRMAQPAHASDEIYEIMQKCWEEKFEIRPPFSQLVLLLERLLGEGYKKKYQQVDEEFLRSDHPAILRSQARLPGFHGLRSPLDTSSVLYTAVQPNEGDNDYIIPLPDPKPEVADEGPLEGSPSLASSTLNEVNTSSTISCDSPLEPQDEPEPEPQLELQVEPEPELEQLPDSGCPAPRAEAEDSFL
Method: PDGFRβ: Platelet-derived growth factor receptor β
as §4, §5, §6

| SMILES | IC50 [nM] |
| --- | --- |
| COc1cc2c(Nc3ccc(Br)cc3F)ncnc2cc1OCCCCN(C)C [Compound 28, 4-(4-bromo-2-fluoroanilino)-6-methoxy-7-(4-(dimethylamino)-butoxy)quinazoline] | 156 |

target: KDR (Homo sapiens, UniProt P35968); test: In vitro enzyme experiment (ELISA), KDR; format: biochemical; settings: Poly (Glu, Tyr)4:1 substrate, 5 μM ATP
Sequence (P35968 20-1356): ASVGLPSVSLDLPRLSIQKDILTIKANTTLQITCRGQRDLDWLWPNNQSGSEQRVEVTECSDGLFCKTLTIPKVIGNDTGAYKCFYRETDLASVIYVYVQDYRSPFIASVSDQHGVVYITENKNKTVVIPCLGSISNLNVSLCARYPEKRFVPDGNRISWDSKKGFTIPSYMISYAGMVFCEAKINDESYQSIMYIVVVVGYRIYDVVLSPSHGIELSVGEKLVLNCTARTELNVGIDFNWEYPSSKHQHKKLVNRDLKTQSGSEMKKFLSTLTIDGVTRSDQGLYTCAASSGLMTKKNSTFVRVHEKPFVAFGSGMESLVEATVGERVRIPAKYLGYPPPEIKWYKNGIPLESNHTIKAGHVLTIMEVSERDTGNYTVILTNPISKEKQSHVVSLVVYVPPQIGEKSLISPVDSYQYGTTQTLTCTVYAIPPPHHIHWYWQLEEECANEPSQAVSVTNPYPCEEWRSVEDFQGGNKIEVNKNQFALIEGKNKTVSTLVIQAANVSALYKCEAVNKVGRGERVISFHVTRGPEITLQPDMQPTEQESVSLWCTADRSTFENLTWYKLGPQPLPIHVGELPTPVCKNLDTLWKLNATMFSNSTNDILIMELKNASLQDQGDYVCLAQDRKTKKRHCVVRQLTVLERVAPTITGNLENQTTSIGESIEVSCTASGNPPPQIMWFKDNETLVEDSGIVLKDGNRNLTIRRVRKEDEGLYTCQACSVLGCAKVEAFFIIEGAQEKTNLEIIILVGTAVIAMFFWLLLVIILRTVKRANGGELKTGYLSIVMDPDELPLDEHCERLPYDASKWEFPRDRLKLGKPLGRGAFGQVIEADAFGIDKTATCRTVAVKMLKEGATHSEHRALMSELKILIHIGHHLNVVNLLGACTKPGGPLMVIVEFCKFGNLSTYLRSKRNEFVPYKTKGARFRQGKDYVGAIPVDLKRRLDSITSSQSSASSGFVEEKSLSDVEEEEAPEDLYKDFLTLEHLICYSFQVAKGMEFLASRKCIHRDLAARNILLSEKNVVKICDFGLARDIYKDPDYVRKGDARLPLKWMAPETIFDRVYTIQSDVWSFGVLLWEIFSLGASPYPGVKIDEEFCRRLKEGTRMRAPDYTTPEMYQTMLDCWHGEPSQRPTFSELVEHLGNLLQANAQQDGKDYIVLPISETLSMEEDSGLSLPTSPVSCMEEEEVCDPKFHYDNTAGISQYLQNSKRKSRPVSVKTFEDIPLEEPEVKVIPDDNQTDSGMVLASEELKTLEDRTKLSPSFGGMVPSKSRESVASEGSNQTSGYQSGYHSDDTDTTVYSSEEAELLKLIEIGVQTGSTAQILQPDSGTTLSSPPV
Method: KDR: Human vascular endothelial growth factor receptor 2
as §4, §5, §6

| SMILES | IC50 [nM] |
| --- | --- |
| COc1cc2c(Nc3ccc(Br)cc3F)ncnc2cc1OCCCCN(C)C [Compound 28, 4-(4-bromo-2-fluoroanilino)-6-methoxy-7-(4-(dimethylamino)-butoxy)quinazoline] | 18.4 |

target: BTK (Homo sapiens, UniProt Q06187); test: In vitro enzyme experiment (ELISA), BTK; format: biochemical; settings: Poly (Glu, Tyr)4:1 substrate, 5 μM ATP
Method: BTK: Bruton tyrosine kinase
as §4, §5, §6

| SMILES | IC50 [nM] |
| --- | --- |
| COc1cc2c(Nc3ccc(Br)cc3F)ncnc2cc1OCCCCN(C)C [Compound 28, 4-(4-bromo-2-fluoroanilino)-6-methoxy-7-(4-(dimethylamino)-butoxy)quinazoline] | 278 |

tested on: A549; test: In vitro cell experiment (MTT), A549; format: cell-based; settings: 72 h, human non-small-cell lung carcinoma cells (EGFR1 wildtype)
In short: as §1

| SMILES | IC50 [nM] |
| --- | --- |
| COc1cc2c(Nc3ccc(Br)cc3F)ncnc2cc1OCCCCN(C)C [Compound 28, 4-(4-bromo-2-fluoroanilino)-6-methoxy-7-(4-(dimethylamino)-butoxy)quinazoline] | 1920 |
